Assay results reported in ChEMBL document CHEMBL1909046, “DrugMatrix in vitro pharmacology data”.

Legend:
[1] = target: T1, Alpha-1A adrenergic receptor (Rattus norvegicus, UniProt P43140); assay: DRUGMATRIX: Alpha-1A adrenergic receptor radioligand binding (ligand: prazosin); type: cell membranes, Wistar, Submaxillary gland, Membrane; conditions: Not Active = under 50% inhibition at 10 µM
T1 sequence (P43140 whole entry): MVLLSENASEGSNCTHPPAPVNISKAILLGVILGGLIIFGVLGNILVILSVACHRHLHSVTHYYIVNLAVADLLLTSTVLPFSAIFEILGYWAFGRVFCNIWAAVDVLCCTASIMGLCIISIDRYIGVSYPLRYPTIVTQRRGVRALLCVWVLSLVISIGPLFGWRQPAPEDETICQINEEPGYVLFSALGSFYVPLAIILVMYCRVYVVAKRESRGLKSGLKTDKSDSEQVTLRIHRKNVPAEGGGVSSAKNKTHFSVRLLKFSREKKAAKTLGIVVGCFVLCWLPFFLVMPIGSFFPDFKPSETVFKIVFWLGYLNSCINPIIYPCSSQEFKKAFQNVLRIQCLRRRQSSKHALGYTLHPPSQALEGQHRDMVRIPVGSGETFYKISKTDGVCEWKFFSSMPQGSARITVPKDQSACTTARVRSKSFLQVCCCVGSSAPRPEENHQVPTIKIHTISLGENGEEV

[2] = target: Beta-2 adrenergic receptor (Homo sapiens, UniProt P07550); assay: DRUGMATRIX: Adrenergic beta2 radioligand binding (ligand: [3H] CGP-12177); type: cell membranes, Membrane; conditions: cho; Not Active = under 50% inhibition at 10 µM
Sequence of Beta-2 adrenergic receptor (P07550 whole entry): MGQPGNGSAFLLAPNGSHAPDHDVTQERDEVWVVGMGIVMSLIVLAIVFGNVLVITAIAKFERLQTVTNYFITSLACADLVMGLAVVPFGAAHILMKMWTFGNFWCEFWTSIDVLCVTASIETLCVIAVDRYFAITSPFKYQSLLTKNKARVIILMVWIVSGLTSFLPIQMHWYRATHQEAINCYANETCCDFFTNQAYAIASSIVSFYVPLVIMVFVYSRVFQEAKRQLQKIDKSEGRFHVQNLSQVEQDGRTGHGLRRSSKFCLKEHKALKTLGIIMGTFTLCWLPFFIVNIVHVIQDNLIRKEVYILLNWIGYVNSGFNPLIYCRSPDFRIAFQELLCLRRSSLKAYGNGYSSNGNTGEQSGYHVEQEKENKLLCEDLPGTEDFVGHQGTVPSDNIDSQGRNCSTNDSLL

[3] = DRUGMATRIX: beta-Lactamase enzyme inhibition (substrate: Nitrocefin); set-up: species or system Bacillus cereus; conditions: Not Active = under 50% inhibition at 10 µM
[4] = DRUGMATRIX: Sigma2 radioligand binding (ligand: [3H] Ifenprodil); type: cell membranes, Rattus norvegicus, Wistar, Brain, Membrane; conditions: Not Active = under 50% inhibition at 10 µM
[5] = target: T2, Muscarinic acetylcholine receptor M5 (Homo sapiens, UniProt P08912); type: cell membranes, CHO-K1, Membrane; conditions: cho-k1; note: in other assays of this panel Not Active means under 50% inhibition at 10 µM
T2 sequence (P08912 whole entry): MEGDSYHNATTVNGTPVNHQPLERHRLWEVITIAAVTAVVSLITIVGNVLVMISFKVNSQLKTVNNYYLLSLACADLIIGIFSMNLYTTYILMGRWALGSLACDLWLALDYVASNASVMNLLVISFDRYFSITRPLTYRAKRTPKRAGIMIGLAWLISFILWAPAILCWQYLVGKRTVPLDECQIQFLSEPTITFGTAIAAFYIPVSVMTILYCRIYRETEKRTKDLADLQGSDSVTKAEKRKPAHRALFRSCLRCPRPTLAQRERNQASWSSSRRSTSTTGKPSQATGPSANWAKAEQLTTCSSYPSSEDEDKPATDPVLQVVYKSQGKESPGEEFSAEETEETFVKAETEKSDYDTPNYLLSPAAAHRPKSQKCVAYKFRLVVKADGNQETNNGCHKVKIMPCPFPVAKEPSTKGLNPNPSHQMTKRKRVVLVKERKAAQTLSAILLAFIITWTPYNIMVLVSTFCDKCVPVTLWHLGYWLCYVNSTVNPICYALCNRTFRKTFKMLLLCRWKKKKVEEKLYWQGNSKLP

[6] = target: Nitric oxide synthase 1 (Rattus norvegicus, UniProt P29476); type: tissue-based, Cerebellum; note: in other assays of this panel Not Active means under 50% inhibition at 10 µM
Sequence of Nitric oxide synthase 1 (P29476 whole entry): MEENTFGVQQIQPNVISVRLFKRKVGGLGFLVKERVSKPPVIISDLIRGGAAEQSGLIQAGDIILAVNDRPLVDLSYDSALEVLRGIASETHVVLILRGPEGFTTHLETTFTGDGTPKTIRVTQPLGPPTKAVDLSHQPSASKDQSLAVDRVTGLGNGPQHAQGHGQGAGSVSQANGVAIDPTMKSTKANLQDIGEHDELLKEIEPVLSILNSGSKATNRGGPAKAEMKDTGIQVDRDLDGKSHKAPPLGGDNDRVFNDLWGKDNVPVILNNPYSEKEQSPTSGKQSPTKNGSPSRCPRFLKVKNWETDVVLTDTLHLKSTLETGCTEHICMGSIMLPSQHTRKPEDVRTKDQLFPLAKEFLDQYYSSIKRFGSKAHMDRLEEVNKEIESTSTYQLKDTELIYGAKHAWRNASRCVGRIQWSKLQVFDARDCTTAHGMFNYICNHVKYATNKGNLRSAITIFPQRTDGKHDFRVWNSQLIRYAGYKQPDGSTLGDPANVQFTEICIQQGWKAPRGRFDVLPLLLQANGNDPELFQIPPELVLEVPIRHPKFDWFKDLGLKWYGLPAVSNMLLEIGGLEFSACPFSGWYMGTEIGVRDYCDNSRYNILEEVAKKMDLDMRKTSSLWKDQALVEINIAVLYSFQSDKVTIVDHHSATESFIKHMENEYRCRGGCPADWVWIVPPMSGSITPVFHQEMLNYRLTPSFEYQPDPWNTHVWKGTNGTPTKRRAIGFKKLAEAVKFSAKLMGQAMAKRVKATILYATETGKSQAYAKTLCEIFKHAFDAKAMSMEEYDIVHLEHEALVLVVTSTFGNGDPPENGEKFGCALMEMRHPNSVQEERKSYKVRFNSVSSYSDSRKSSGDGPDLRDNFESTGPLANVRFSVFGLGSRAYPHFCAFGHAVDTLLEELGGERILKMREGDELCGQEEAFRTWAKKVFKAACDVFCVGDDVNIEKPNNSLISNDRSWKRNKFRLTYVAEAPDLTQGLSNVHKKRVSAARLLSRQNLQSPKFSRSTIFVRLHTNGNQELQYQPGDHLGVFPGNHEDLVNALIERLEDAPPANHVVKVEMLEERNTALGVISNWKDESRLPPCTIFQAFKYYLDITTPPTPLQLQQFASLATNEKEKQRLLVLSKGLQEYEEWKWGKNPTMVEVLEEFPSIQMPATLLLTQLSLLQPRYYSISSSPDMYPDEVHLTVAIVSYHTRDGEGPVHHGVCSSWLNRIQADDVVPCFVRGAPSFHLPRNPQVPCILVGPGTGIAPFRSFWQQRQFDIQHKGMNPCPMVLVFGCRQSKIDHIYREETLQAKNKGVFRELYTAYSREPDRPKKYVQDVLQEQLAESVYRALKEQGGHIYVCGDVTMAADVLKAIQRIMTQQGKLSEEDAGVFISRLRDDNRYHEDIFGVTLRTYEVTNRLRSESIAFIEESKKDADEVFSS

[7] = target: Platelet-activating factor receptor (Homo sapiens, UniProt P25105); assay: biochemical; type: tissue-based; conditions: platelet; note: in other assays of this panel Not Active means under 50% inhibition at 10 µM
Sequence of Platelet-activating factor receptor (P25105 whole entry): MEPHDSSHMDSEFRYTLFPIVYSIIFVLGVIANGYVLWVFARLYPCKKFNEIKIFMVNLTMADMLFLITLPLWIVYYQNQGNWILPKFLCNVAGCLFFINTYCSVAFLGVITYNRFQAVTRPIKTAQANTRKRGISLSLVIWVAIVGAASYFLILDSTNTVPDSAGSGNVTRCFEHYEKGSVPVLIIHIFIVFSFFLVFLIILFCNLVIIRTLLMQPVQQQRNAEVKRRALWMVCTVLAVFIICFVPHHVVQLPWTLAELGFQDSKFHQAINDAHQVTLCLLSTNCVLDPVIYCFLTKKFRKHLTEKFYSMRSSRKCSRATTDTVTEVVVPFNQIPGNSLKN

[8] = DRUGMATRIX: Potassium Channel [KATP] radioligand binding (ligand: [3H] Glyburide); type: cell membranes, Membrane; conditions: hit-t15; Not Active = under 50% inhibition at 10 µM
[9] = target: T3, Angiotensin-converting enzyme (Oryctolagus cuniculus, UniProt P12822); assay: biochemical; type: tissue-based, Lung;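 note: enzymatic inhibition of angiotensin-converting enzyme measured with FAPGG as the substrate; in other assays of this panel Not Active means under 50% inhibition at 10 µM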
T3 sequence (P12822 whole entry): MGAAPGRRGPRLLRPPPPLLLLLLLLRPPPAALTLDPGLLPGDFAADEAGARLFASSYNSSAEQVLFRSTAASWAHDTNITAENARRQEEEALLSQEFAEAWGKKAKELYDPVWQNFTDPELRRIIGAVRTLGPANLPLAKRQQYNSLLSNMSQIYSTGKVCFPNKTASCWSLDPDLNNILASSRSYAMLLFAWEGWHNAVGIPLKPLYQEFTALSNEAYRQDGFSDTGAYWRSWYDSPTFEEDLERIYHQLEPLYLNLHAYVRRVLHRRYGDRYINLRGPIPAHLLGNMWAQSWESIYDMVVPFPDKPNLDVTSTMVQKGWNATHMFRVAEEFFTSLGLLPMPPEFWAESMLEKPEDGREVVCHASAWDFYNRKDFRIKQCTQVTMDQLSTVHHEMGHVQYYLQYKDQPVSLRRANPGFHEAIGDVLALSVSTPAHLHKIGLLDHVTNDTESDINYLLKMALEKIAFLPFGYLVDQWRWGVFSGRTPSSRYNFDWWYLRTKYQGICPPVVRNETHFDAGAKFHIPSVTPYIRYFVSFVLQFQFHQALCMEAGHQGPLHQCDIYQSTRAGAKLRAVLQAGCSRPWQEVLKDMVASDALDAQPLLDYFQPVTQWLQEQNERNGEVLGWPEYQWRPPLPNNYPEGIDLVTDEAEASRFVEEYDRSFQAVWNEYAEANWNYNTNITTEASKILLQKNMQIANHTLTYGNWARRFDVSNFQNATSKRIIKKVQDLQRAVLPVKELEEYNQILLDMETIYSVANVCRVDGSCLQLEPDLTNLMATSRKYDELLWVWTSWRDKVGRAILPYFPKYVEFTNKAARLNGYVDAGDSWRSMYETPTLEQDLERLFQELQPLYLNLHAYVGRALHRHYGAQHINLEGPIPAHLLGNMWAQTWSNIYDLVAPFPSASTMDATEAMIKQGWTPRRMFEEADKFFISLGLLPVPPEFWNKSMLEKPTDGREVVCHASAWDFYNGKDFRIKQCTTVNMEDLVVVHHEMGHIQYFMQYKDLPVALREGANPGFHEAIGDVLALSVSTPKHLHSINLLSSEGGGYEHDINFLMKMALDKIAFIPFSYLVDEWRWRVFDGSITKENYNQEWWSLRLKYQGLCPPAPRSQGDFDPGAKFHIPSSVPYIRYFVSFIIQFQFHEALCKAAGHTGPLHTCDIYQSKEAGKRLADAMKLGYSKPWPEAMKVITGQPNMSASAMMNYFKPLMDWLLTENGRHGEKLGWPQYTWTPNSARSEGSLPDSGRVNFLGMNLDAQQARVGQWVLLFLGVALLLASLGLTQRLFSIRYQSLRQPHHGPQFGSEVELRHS

[10] = target: Protein phosphatase 3 catalytic subunit alpha (Homo sapiens, UniProt Q08209); set-up: species or system Escherichia coli

SMILES | IC50 [1] | IC50 [2] | IC50 [3] | Ki [3] | IC50 [4] | Ki [4] | IC50 [5] | IC50 [6] | IC50 [7] | IC50 [8] | Ki [8] | IC50 [9] | IC50 [10] | IC50 ([4]; read-out: IC50) | Ki ([4]; read-out: Ki)
CC(=O)S[C@@H]1CC2=CC(=O)CC[C@]2(C)[C@H]2CC[C@@]3(C)[C@@H](CC[C@@]34CCC(=O)O4)[C@H]12 [SPIRONOLACTONE] | Not Active | Not Active | Not Active | Not Active | Not Active | Not Active | Not Active | Not Active | Not Active | Not Active | Not Active | Not Active | Not Active |  | 
COc1cc(C(=O)NC2CCCNC2)cc(OC)c1OC (stereo not drawn) [TROXIPIDE] | Not Active | Not Active | Not Active | Not Active | Not Active | Not Active | Not Active | Not Active | Not Active | Not Active | Not Active | Not Active | Not Active |  | 
Cc1ccc(C(=O)C(C)CN2CCCCC2)cc1 (stereo not drawn) [TOLPERISONE] | Not Active | Not Active | Not Active | Not Active |  |  | Not Active | Not Active | Not Active | Not Active | Not Active | Not Active | Not Active | 3360 nM | 2070 nM
NC(=O)c1ccccc1O [SALICYLAMIDE] | Not Active | Not Active | Not Active | Not Active | Not Active | Not Active | Not Active | Not Active | Not Active | Not Active | Not Active | Not Active | Not Active |  | 
CCC[C@@H]1C[C@@H](C(=O)N[C@@H]([C@H]2O[C@H](SC)[C@H](O)[C@@H](O)[C@H]2O)[C@@H](C)O)N(C)C1 [LINCOMYCIN] | Not Active | Not Active | Not Active | Not Active | Not Active | Not Active | Not Active | Not Active | Not Active | Not Active | Not Active | Not Active | Not Active |  | 
NNc1ccccc1 [PHENYLHYDRAZINE] | Not Active | Not Active | Not Active | Not Active | Not Active | Not Active | Not Active | Not Active | Not Active | Not Active | Not Active | Not Active | Not Active |  | 
NC(CO)(CO)CO [TROMETHAMINE] | Not Active | Not Active | Not Active | Not Active | Not Active | Not Active | Not Active | Not Active | Not Active | Not Active | Not Active | Not Active | Not Active |  | 
COC(=O)C1=C(C)NC(C)=C(C(=O)OC)C1c1ccccc1[N+](=O)[O-] [NIFEDIPINE] | Not Active | Not Active | Not Active | Not Active | Not Active | Not Active | Not Active | Not Active | Not Active | Not Active | Not Active | Not Active | Not Active |  | 
CC[C@H]1OC(=O)[C@H](C)[C@@H](O[C@H]2C[C@@](C)(OC)[C@@H](O)[C@H](C)O2)[C@H](C)[C@@H](O[C@@H]2O[C@H](C)C[C@H](N(C)C)[C@H]2O)[C@](C)(O)C[C@@H](C)/C(=N\OCOCCOC)[C@H](C)[C@@H](O)[C@]1(C)O [ROXITHROMYCIN] | Not Active | Not Active | Not Active | Not Active | Not Active | Not Active | Not Active | Not Active | Not Active | Not Active | Not Active | Not Active | Not Active |  | 
CC(C)[C@H](N)C(=O)OCCOCn1cnc2c(=O)nc(N)[nH]c21 [VALACYCLOVIR] | Not Active | Not Active | Not Active | Not Active | Not Active | Not Active | Not Active | Not Active | Not Active | Not Active | Not Active | Not Active | Not Active |  | 
NC(=O)c1ncn([C@@H]2O[C@H](CO)[C@@H](O)[C@H]2O)n1 [RIBAVIRIN] | Not Active | Not Active | Not Active | Not Active | Not Active | Not Active | Not Active | Not Active | Not Active | Not Active | Not Active | Not Active | Not Active |  | 
